# According to US20260335320A1, “ANTI-VIRULENCE AGENTS AND METHODS FOR THE TREATMENT OF PATHOGENIC BACTERIUM” (priority 2023, published 2026):
# Like-named read-outs stand apart in the source and are kept apart here.
# Legend:
# [1] = tested on: Burkholderia FixLJ pathway (Fix-GFP reporter in B. multivorans strain VC7102); assay: Fix-GFP reporter activation screen (GFP fluorescence)
# Mycobacterium abscessus = assay: Intracellular invasion/survival in THP-1-derived macrophages; assay type: cell-based; conditions: 25 μM, 2 h plus 2 h with amikacin
# Procedure: FIG. 9. BFA compounds reduce the virulence of M. abscessus. FIG. 9 provides a graph showing the results after THP-1-derived macrophages were infected with ~5×10^5 CFU/M. abscessus strain ATCC19977 and 25 μM of the indicated BFA or DMSO vehicle control for 2 hours. Cells were washed and treated with the same BFA and 500 μg/mL amikacin (to kill extracellular bacteria) for 2 hours.
# To determine whether BFA compounds could inhibit the virulence of Mycobacterium abscessus THP-1-derived macrophages were used.
# [2] = tested on: P. aeruginosa strain PA14; assay: P. aeruginosa-induced cytotoxicity of A549 cells (LDH release); conditions: 25 μM, 5.5 hours
# B. thailandensis = assay: microbe, parasite or virus in culture; assay type: cell-based
# B. cenocepacia = assay: Invasion/intracellular survival in THP-1-derived macrophages; assay type: cell-based; conditions: 4 h
# B. dolosa strain AU0158 = assay: Invasion of and/or intracellular survival in THP-1-derived macrophages, antibiotic exclusion assay; assay type: cell-based, B. dolosa strain AU0158 (in human THP-1-derived macrophages)
# B. multivorans = assay: Invasion/intracellular survival in THP-1-derived macrophages; assay type: cell-based; conditions: 4 h
smiles,measurement,setting,value
"NC(CO)C(=O)NNCc1ccc(O)c(O)c1O (centres unmarked) [Benserazide, benserazide]",GFP activity above the mean of the negative control (DMSO),[1],more than 3 standard deviations
"CCc1ccccc1N1CC(c2nc3ccccc3n2CCCCOc2ccccc2)CC1=O (centres unmarked) [BFA3, 1-(2-ETHYLPHENYL)-4-[1-(4-PHENOXYBUTYL)-1H-1,3-BENZODIAZOL-2-YL]PYRROLIDIN-2-ONE]",inhibition of intracellular invasion/survival of M. abscessus,Mycobacterium abscessus,able to inhibit the intracellular invasion/survival within the macrophages
same,inhibition of PA14-induced cytotoxicity,[2],able to significantly reduce cytotoxicity
"Cc1ccccc1-n1c(/C=C/c2ccc(N(C)C)cc2)nc2ccccc2c1=O [BFA6, 2-[(1E)-2-[4-(DIMETHYLAMINO)PHENYL]ETHENYL]-3-(2-METHYLPHENYL)-3,4-DIHYDROQUINAZOLIN-4-ONE]",inhibition of invasion/survival of B. thailandensis,B. thailandensis,able to inhibit the invasion/survival of B. thailandensis
same,inhibition of PA14-induced cytotoxicity,[2],able to significantly reduce cytotoxicity
"CCCCCCc1cc2cc(-c3nnc(-c4ccc(C)cc4)o3)c(=O)oc2cc1O [BFA1, 6-HEXYL-7-HYDROXY-3-[5-(4-METHYLPHENYL)-1,3,4-OXADIAZOL-2-YL]-2H-CHROMEN-2-ONE]",inhibition of invasion/survival of B. thailandensis,"B. thailandensis; 25 μM, 4 h",able to inhibit the invasion/survival of B. cenocepacia (FIG. 3B) and B. thailandensis
same,minimal effective concentration,"B. thailandensis; Burkholderia thailandensis, Macrophage, 2 h, read-out: dose inhibiting invasion/survival of B. thailandensis",6.25 µM
same,inhibition of intracellular invasion/survival of M. abscessus,Mycobacterium abscessus,able to inhibit the intracellular invasion/survival within the macrophages
same,inhibition of invasion/survival of B. cenocepacia,B. cenocepacia; 25 μM,able to inhibit the invasion/survival of B. cenocepacia
same,dose needed to inhibit B. cenocepacia,"B. cenocepacia; dose range, compared with 6.25 μM",higher doses were needed to inhibit B. cenocepacia
same,inhibition of invasion/survival of B. dolosa in macrophages,B. dolosa strain AU0158,inhibited virulence at a lower concentration and at a greater magnitude than the other BFA compounds
same,inhibition of invasion/survival of B. dolosa in macrophages,B. dolosa strain AU0158; for BFA 2-8 at highest dose tested,~ 75%
same,inhibition of invasion/survival of B. multivorans,"B. multivorans; 25 μM, THP-1-derived macrophages",inhibited the invasion/survival of all three additional Burkholderia species
same,minimal effective concentration,"B. multivorans; Burkholderia multivorans, Macrophage, read-out: dose inhibiting invasion/survival of B. multivorans",6.25 µM
"CCCCN(C)CCCNC(=O)Cn1ncc2c3ccccc3n(Cc3cccc(Cl)c3)c2c1=O [BFA7, N-{3-[Butyl(Methyl)Amino]Propyl}-2-{5-[(3-Chlorophenyl)Methyl]-4-Oxo-3h,4h,5h-Pyridazino[4,5-B]Indol-3-Yl}Acetamide]",inhibition of intracellular invasion/survival of M. abscessus,Mycobacterium abscessus,able to inhibit the intracellular invasion/survival within the macrophages
same,inhibition of PA14-induced cytotoxicity,[2],able to significantly reduce cytotoxicity
"COCCNC(=O)CCn1c(=O)c2cc(OC)c(OC)cc2n(CC(=O)Nc2ccccc2OC)c1=O [BFA2, 3-(6,7-Dimethoxy-1-{[(2-Methoxyphenyl)Carbamoyl]Methyl}-2,4-Dioxo-1,2,3,4-Tetrahydroquinazolin-3-Yl)-N-(2-Methoxyethyl)Propanamide]",inhibition of intracellular invasion/survival of M. abscessus,Mycobacterium abscessus,able to inhibit the intracellular invasion/survival within the macrophages
